Test results taken from article PMC2717050, “Evaluation of expression and function of the H^+/myo-inositol transporter HMIT” (BMC Cell Biology, 2009).

Legend:
[1] = biological target: T1, HMIT triple mutant (H+/myo-inositol transporter) (Rattus norvegicus, UniProt Q921A2); assay: whole-cell patch-clamp, inositol-evoked inward current; assay type: cell-based; details: extracellular pH 5.2; room temperature; Hill slope 1.0; transiently transfected HEK293/HEK293T cells
T1 construct: gene Slc2a13; stop codon deleted, C-terminal V5-His; pcDNA3.1/V5-His-TOPO; transient in HEK293/HEK293T cells
T1 sequence (Q921A2 1-637): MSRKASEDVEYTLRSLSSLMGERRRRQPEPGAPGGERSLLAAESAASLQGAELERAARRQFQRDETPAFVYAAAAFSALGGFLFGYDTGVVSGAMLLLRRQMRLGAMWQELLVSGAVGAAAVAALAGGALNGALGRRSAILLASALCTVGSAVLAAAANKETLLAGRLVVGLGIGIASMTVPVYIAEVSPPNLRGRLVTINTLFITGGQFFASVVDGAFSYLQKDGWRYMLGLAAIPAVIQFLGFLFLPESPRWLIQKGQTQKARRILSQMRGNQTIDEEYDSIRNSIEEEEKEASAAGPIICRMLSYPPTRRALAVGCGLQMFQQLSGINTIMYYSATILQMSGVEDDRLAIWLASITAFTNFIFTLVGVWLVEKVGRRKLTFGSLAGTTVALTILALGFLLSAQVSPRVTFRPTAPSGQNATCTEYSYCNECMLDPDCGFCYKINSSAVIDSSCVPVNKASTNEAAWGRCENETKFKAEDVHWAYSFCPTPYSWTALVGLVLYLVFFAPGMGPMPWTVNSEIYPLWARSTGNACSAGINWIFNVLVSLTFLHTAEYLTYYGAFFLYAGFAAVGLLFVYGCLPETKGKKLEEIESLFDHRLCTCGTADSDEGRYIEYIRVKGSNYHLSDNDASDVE

[2] = biological target: T1, HMIT triple mutant (H+/myo-inositol transporter); assay: [3H]-myo-inositol uptake in HEK293T cells; assay type: cell-based; details: pH 6.0; 37 °C pre-incubation 10 min; 2 min uptake; non-selective inhibitor

EC50 [1] [µM]	% inhibition at 1 mM [2] [%]	SMILES
2700	–	O[C@H]1[C@H](O)[C@@H](O)[C@H](O)[C@@H](O)[C@H]1O [myo-inositol]
–	53 ± 1.4	O=C(CCc1ccc(O)cc1)c1c(O)cc(O)cc1O[C@@H]1O[C@H](CO)[C@@H](O)[C@H](O)[C@H]1O [phloridzin]
